Laboratory results reported in patent US7452865B2, “Antagonistic analogs of GH RH (2003)” (The Administrare's of the Tulane Educational Fund, priority 2004, dated 2008).
Marks after values point to notes of the source that are not given here. Square brackets hold non-standard residues; d marks the D form. Peptide text beside a SMILES is read from it. * marks the point of attachment. Phe(4-amidino) = N=C(N)c1ccc(C[C@H](N)C(=O)O)cc1; Phe(4-Cl) = N[C@@H](Cc1ccc(Cl)cc1)C(=O)O; hArg = N=C(N)NCCCC[C@H](N)C(=O)O; Nle = CCCC[C@H](N)C(=O)O; Abu = CC[C@H](N)C(=O)O; PhAc = O=C(Cc1ccccc1)*

Columns and labels:
[1] = test system: hGH-RH(1-29)NH2 induced GH release; test: Inhibition of GH release in superfused rat pituitary system; type: cell-based
Summary of the method: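 GH output was quantified by double-antibody RIA in superfusates of rat pituitary cells. Peptides were applied for 9 min at various concentrations before a 3-min 1 nM hGH-RH(1-29)NH2 pulse, with further pulses 30–120 min later; net integral responses given as percent of the original response.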

[2] = test system: H-69 human SCLC xenografts; test: H-69 human SCLC xenografts in nude mice: tumor growth; type: in vivo; conditions: H-69
Experimental: Male nude mice were implanted s.c. with 3 mm^3 pieces of H-69 human SCLC tissue. When tumors reached a volume of approx. 80 mm^3 the mice were divided into 4 experimental groups of 7-8 animals each and received the following treatment for 4 weeks: group I (control), vehicle solution; group 2, Peptide 67 (10 μg/day s.c.); group 3, Peptide 31 (10 μg/day s.c.); group 4, Peptide 72 (10 μg/day s.c.). Tumor volumes were recorded twice a week. At the end of treatment, mice were anesthetized with isoflurane, killed by decapitation, and tumors were excised and weighed. Data are presented as means±S.E. Data were evaluated by one way ANOVA and the Student-Newman-Keuls test.

[3] = test system: DMS-153 human SCLC xenografts; test: DMS-153 human SCLC xenografts in nude mice: tumor growth; type: in vivo
Experimental: (§1) Male nude mice were implanted s.c. with 3 mm^3 pieces of DMS-153 human SCLC tissue. When tumors reached a volume of approx. 100 mm^3 the mice were divided into 3 experimental groups of 68 animals each and received the following treatment for 6 weeks group 1 (control), vehicle solution; group 2, Peptide 67 (10 μg/day s.c.); group 3, Peptide 31 (10 μg/day s.c.). Tumor volumes were recorded twice a week. At the end of treatment, mice were anesthetized with isoflurane, killed by decapitation, trunk blood was collected for measurement of serum IGF-I, and tumors were excised and weighed. Data are presented as means±S.E. Data were evaluated by one way ANOVA and the Student-Newman-Keuls test.

IGF-I [4] = test: PC-3 xenografts, Experiment 1: serum IGF-I (RIA); type: in vivo, nude mice; conditions: 10 μg/day s.c., 28 days
Text: (§2) For the measurement of GH and IGF-I levels in the serum, as well as IGF-I and IGF-II concentrations in the cytosol fraction of tumors, blood samples and tumor samples were collected and processed as described (Braczkowski R, Schally A V, Plonowski A, Varga J L, Groot K, Krupa M, Armatis P, Cancer 95: 1735-1745, 2002), hereby incorporated by reference. Briefly, blood samples are centrifuged to separate the serum, tumors are homogenized and centrifuged to separate the cytosol fraction. Serum GH is then measured by the double-antibody RIA method. Before measurement by RIA, IGF-I and IGF-II are extracted from serum and cytosol fractions using an acid-ethanol cryoprecipitation method that eliminates most of the IGF binding proteins, which can interfere with the RIA. IGF-I concentration is measured by RIA using IGF-I as a standard and goat anti-IGF-I antibody (both from DSL Inc., Webster, Tex.). IGF-II concentration is measured by RIA using human recombinant IGF-II (Bachem) as a standard and anti-IGF-II monoclonal antibody (Amano International Enzyme, Troy, Va.).
(§3) Male nude mice were implanted s.c. with 3 mm^3 pieces of PC-3 human hormone-independent prostate cancer tissue on both flanks. When tumors reached a volume of approx. 50 mm^3, the mice were divided into 5 experimental groups with 7 to 8 animals in each group and received single daily injections for 28 days as follows: 1. Control (vehicle solution); 2. JV-1-38 (10 μg/day s.c.); 3 Peptide 31 (10 μg/day s.c.); 4. Peptide 67 (10 μg/day s.c.); 5. Peptide 62 (10 μg/day s.c.). Tumor volumes were measured twice a week. The experiment was ended on day 29 by sacrificing the mice under Isoflurane anesthesia. Resulting tumors were cleaned, weighed, and snap-frozen until further analyses. Trunk blood was collected from the abdominal aorta and serum was separated for RIA measurement of IGF-I. Statistical analyses of the measurement results were done by two-tailed t-test; data are presented as the means±S.E.

mRNA for IGF-II = test: DMS-153 human SCLC xenografts: expression of mRNA for IGF-II; type: in vivo, nude mice; conditions: 10 μg/day s.c., 6 weeks, control group 100±1.5%
Experimental: as §1

IGF-II = test: PC-3 xenografts, Experiment 1: tumor IGF-II (RIA); type: in vivo, nude mice; conditions: 10 μg/day s.c., 28 days
Text: as §2, §3

IGF-I [5] = test: DMS-153 human SCLC xenografts: serum IGF-I; type: in vivo, nude mice; conditions: 10 μg/day s.c., 6 weeks
Text: as §2, §1

[6] = test system: PC-3 human prostate cancer xenografts; test: PC-3 xenografts in nude mice, Experiment 1: tumor growth; type: in vivo
Experimental: as §3

pituitary = conditions: cited from earlier work
GH secretion = conditions: cited from earlier work
[7] = test system: rat anterior pituitary adenylate cyclase; conditions: cited from earlier work
[8] = 10 μg/day s.c., 6 weeks, vs control
[9] = 10 μg/day s.c., 28 days, vs control

**Q.** Which “GH response (% of control) 0 min” value ([1]; antagonist 10 nM, 0 min) does the source give for `CCCC[C@H](NC(=O)[C@@H](NC(=O)[C@H](CC(=O)O)NC(=O)[C@H](CCC(N)=O)NC(=O)[C@H](CC(C)C)NC(=O)[C@H](CC(C)C)NC(=O)[C@H](CCCCN)NC(=O)[C@H](CCCNC(=N)N)NC(=O)[C@H](C)NC(=O)[C@H](CO)NC(=O)[C@H](CC(C)C)NC(=O)[C@H](CCC(N)=O)NC(=O)[C@H](CC)NC(=O)[C@H](CC(C)C)NC(=O)[C@@H](NC(=O)[C@H](CCCCN)NC(=O)[C@H](CCCNC(=N)N)NC(=O)[C@H](Cc1ccc(C(=N)N)cc1)NC(=O)[C@H](CCCCNC(=N)N)NC(=O)[C@H](CC(N)=O)NC(=O)[C@@H](NC(=O)[C@H](Cc1ccc(Cl)cc1)NC(=O)[C@@H](NC(=O)[C@H](C)NC(=O)[C@H](CC(=O)O)NC(=O)[C@@H](CCCNC(=N)N)NC(=O)[C@H](Cc1ccc(O)cc1)NC(=O)Cc1ccccc1)[C@@H](C)CC)[C@@H](C)O)C(C)C)[C@@H](C)CC)C(=O)N[C@H](CCCNC(=N)N)C(=O)N[C@@H](CCCCNC(=N)N)C(N)=O` [Peptide 31, [PhAc-Tyr^1, D-Arg^2, Phe(pCl)^6, Har^9, Amp^10, Abu^15, Nle^27, D-Arg^28, Har^29]hGH-RH(1-29)NH2] (PhAc-Y[dR]DAI[Phe(4-Cl)]TN[hArg][Phe(4-amidino)]RKVL[Abu]QLSARKLLQDI[Nle][dR][hArg]-NH2) here?
**A.** 57 % of control

**Q.** What about the “GH response (% of control) 30 min” value ([1]; antagonist 10 nM, 30 min) of the same compound?
**A.** 31 % of control

**Q.** And the “GH response (% of control) 60 min” value ([1]; antagonist 10 nM, 60 min)?
**A.** 37 % of control

**Q.** And the “GH response (% of control) 90 min” value ([1]; antagonist 10 nM, 90 min)?
**A.** 36 % of control

**Q.** And the “GH response (% of control) 120 min” value ([1]; antagonist 10 nM, 120 min)?
**A.** 37 % of control

**Q.** And the “GH response (% of control) 0 min” value ([1]; antagonist 30 nM, 1 nM hGH-RH(1-29)NH2 at 0 min)?
**A.** 7 % of control

**Q.** What about the “GH response (% of control) 30 min” value ([1]; antagonist 30 nM, 1 nM hGH-RH(1-29)NH2 at 30 min) of the same compound?
**A.** 1 % of control

**Q.** And the “GH response (% of control) 60 min” value ([1]; antagonist 30 nM, 1 nM hGH-RH(1-29)NH2 at 60 min)?
**A.** 2 % of control

**Q.** What about the “GH response (% of control) 90 min” value ([1]; antagonist 30 nM, 1 nM hGH-RH(1-29)NH2 at 90 min) of the same compound?
**A.** 4 % of control

**Q.** And the “GH response (% of control) 120 min” value ([1]; antagonist 30 nM, 1 nM hGH-RH(1-29)NH2 at 120 min)?
**A.** 3 % of control

**Q.** What about the “endocrine antagonistic potency: inhibition of the GH release stimulated by hGH-RH(1-29)NH2 (in words)” value ([1]; general statement, in vitro and in vivo) of the same compound?
**A.** high endocrine antagonistic potencies

**Q.** What about the “Tumor volume (mm^3) Final” value ([2]; 10 μg/day s.c., 4 weeks) of the same compound?
**A.** 832 ± 23* mm^3

**Q.** What about the “Tumor volume Final (% inhibition)” value ([2]; 10 μg/day s.c., 4 weeks, vs control) of the same compound?
**A.** (67%)

**Q.** And the “Tumor volume (mm^3) Initial” value ([2]; at start of treatment)?
**A.** 80 ± 6 mm^3

**Q.** What about the “Tumor volume (mm^3) Final” value ([3]; 10 μg/day s.c., 6 weeks) of the same compound?
**A.** 3329 ± 180 mm^3

**Q.** What about the “Tumor weight” value ([3]; 10 μg/day s.c., 6 weeks) of the same compound?
**A.** 1.58 ± 0.11 g

**Q.** And the “Tumor volume Final (% inhibition)” value [3, 8]?
**A.** (10%)

**Q.** What about the “Tumor weight (% inhibition)” value [3, 8] of the same compound?
**A.** (32%)

**Q.** What about the “Tumor volume (mm^3) Initial” value ([3]; at start of treatment) of the same compound?
**A.** 138 ± 20 mm^3

**Q.** What about the “Serum IGF-I” value (IGF-I [4]) of the same compound?
**A.** 133 ± 16.7 ng/mL

**Q.** And the “Serum IGF-I (% inhibition)” value (IGF-I [4]; vs control)?
**A.** (11%)

**Q.** What about the “level of expression of mRNA for IGF-II” value (mRNA for IGF-II) of the same compound?
**A.** 42.7±18.5%

**Q.** And the “Tumor IGF-II (pg/mg protein)” value (IGF-II)?
**A.** 130 ± 56.0 pg/mg protein

**Q.** What about the “Tumor IGF-II (% inhibition)” value (IGF-II; vs control) of the same compound?
**A.** (41%)

**Q.** And the “Serum IGF-I” value (IGF-I [5])?
**A.** 118.4 ± 12.5 ng/mL

**Q.** What about the “Serum IGF-I (% inhibition)” value (IGF-I [5]; vs control) of the same compound?
**A.** (30%)

**Q.** And the “Tumor volume (mm^3) Final” value ([6]; 10 μg/day s.c., 28 days)?
**A.** 363 ± 92.8 mm^3

**Q.** What about the “Tumor volume doubling time” value ([6]; 10 μg/day s.c., 28 days) of the same compound?
**A.** 14.0 ± 2.69 days

**Q.** And the “Tumor weight” value ([6]; 10 μg/day s.c., 28 days)?
**A.** 237 ± 53.3 mg

**Q.** And the “Tumor volume Final (% inhibition)” value [6, 9]?
**A.** (28%)

**Q.** What about the “Tumor weight (% inhibition)” value [6, 9] of the same compound?
**A.** (37%)

**Q.** What about the “Tumor volume (mm^3) Initial” value ([6]; at start of treatment) of the same compound?
**A.** 49.1 ± 12.5 mm^3

**Q.** For “Tyr-Ala-Asp-Ala-Ile^5-Phe-Thr-Asn-Ser-Tyr^10-Arg-Lys-Val-Leu-Gly^15-Gln-Leu-Ser-Ala-Arg^20-Lys-Leu-Leu-Gln-Asp^25-Ile-Met-Ser-Arg^29-NH2 [GH-RH(1-29)]”, which “potency retained relative to native GH-RH” value (pituitary) is on record?
**A.** ≥ 50%

**Q.** Which results are given for “[Ac-Tyr^1, D-Arg^2]hGH-RH(1-29)NH2 [Standard antagonist, reference compound]”?
**A.** GH response (% of control) 0 min ([1]; antagonist 100 nM, 0 min): 38 % of control; GH response (% of control) 30 min ([1]; antagonist 100 nM, 30 min): 98 % of control; GH response (% of control) 60 min ([1]; antagonist 100 nM, 60 min): 81 % of control; nocturnal GH secretion (GH secretion; 400 μg/kg, normal subjects): eliminated nocturnal GH secretion; GH levels (GH secretion; a patient with acromegaly): reduced GH levels; activation of rat anterior pituitary adenylate cyclase by hGH-RH(1-29)NH2 [7]: prevent the activation
